Measured values taken from PubChem BioAssay AID179 (DTP/NCI, 2004).
Activity calls are given as the source filed them.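 How the source made its calls: active means compounds giving half or more protection of infected cells from virus-caused growth loss, again on retest; inactive means the rest.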 Where a SMILES comes first, the peptide text is derived from it.

Tested on: CEM cells HIV-1 protection, formazan growth assay
Experiment: NCI AIDS Antiviral Assay
Conditions: for IC50: measured here: growth of uninfected CEM cells
Procedure, shortened: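 CEM (human) cells, HIV-1 infected vs uninfected, 5-point dosing, formazan growth read-out. Retest threshold 50% protection.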

CC(=O)Oc1c2c(c(OC(C)=O)c3c1C(=O)c1ccccc1C3=O)CCC([C@H](C)O)=C2
outcome: inactive

O=C1CCC2CCOc3ccc(O)c1c32 (stereo not given)
outcome: inactive

COc1cccc2c1OC1c3ccccc3OCC1(O)C2 (stereo not given)
outcome: inactive

O=C(CN1CCCC1)Nc1ccc2c(c1)C1Oc3ccccc3CC1CO2 (stereo not given)
outcome: inactive

CC(CC(=O)N1C2CC3CCC2(CS1(=O)=O)C3(C)C)[Si](C)(C)C (stereo not given)
EC50: > 200 µM | IC50: 74.1 µM

O=C1/C(=C/c2ccccc2)CN(C(=O)CCN2CCOCC2)C/C1=C\c1ccccc1
EC50: > 79.4 µM | IC50: 0.525 µM

CCN(CC)CSc1nc2ccccc2[nH]1
outcome: inactive

CCOc1ccc(NC(=O)C(=O)CC(=O)c2c[n+](=O)c3cc(C)c(C)cc3n2[O-])cc1
EC50: > 8.51 µM | IC50: > 8.51 µM

CC(C)(C)OC(=O)[C@@H]1ON2O[C@H](OC3CCCC3(c3ccccc3)c3ccccc3)C[C@H]3OC(=O)[C@@H]1[C@H]32 (stereo not given in full)
EC50: > 200 µM | IC50: 31.6 µM

COc1ccc([C@H]2CC(=O)C[C@H](c3ccc(OC)cc3)C23C(=O)c2ccccc2C3=O)cc1
EC50: > 200 µM | IC50: 2.63 µM

c1ccc2c(c1)nc1n2CC2(CS1)CSc1nc3ccccc3n1C2
outcome: inactive

[CH3][Sn]([CH3])([CH3])[O]C(=O)C(O)c1ccccc1 (stereo not given)
outcome: inactive

Cc1c(C(=N)N)oc2ccccc12
outcome: inactive

N#C/C(=C(/c1ccccc1)c1ccccn1)c1ccc(Cl)cc1
EC50: > 2 µM | IC50: 1 µM

FC1OC2OC1C(OCc1ccccc1)C(OCc1ccccc1)C2OCc1ccccc1 (stereo not given)
EC50: > 6.03 µM | IC50: > 6.03 µM

CO/C(=N/N1CC1C(F)(F)F)c1ccncc1 (stereo not given)
outcome: inactive

Cc1cc(Cl)ccc1C(=O)c1ccc2ccccc2c1C(=O)O
EC50: > 550 µM | IC50: 126 µM

O=C(CCCl)Nc1c(Cl)cccc1Cl
outcome: inactive

O=S(=O)(O)c1cc(N=Nc2cc(S(=O)(=O)O)c3cccnc3c2O)ccc1CCc1ccc(N=Nc2cc(S(=O)(=O)O)c3cccnc3c2O)cc1S(=O)(=O)O
EC50: 1.7 µM | IC50: 9.33 µM

NC(=O)CNC(=O)C1CC(O)CN1C(=O)OCc1ccccc1 (stereo not given) (HELM PEPTIDE1{[O=C(OCc1ccccc1)[*:2]].[O=C(C1CC(O)CN1[*:1])[*:2]].G.[am]}$$$$V2.0)
EC50: > 200 µM | IC50: > 200 µM

C[CH2][Pb]([CH2]C)([CH2]C)[O]C(=O)C(F)(F)F
EC50: > 200 µM | IC50: 31.6 µM

COc1cccc(/C=C2\SC(=S)N(/C=C3\C(=O)Oc4ccccc4C3=O)C2=O)c1O
EC50: > 200 µM | IC50: 70.8 µM

COc1ccc(N2C(=O)C3c4[nH]c5cccc(Cl)c5c4C4CCC(C(C)(C)C)CC4C3C2=O)cc1 (stereo not given)
EC50: > 200 µM

CN(C)c1ccc(C(C=C2c3ccccc3Sc3ccccc32)=C(C#N)C#N)cc1
outcome: inactive

COc1ccc(N=Nc2c(-c3c(OC)cc4occc4c3OC)[nH]c(=O)c(C#N)c2C)cc1
EC50: > 200 µM | IC50: 120 µM

COC(=O)c1cc(=O)nc(N/N=C/c2ccc(C)cc2)s1
EC50: > 44.7 µM | IC50: 30.9 µM

CC1(C)/C(=N\O)C2(OS(=O)(=O)C(F)(F)F)CCC1C2 (stereo not given)
EC50: > 200 µM | IC50: > 200 µM

COC(=O)NC12CC3CC(CC(F)(C3)C1)C2
EC50: > 575 µM | IC50: 145 µM

O=C1CC2SC(COCc3ccccc3)(CCN2Cc2ccccc2)C1 (stereo not given)
outcome: inactive | IC50: 41.7 µM

COc1ccccc1NC(=S)/N=C/c1c(O)cc(C)oc1=O
EC50: > 200 µM | IC50: > 200 µM

Cc1cc(S(=O)(=O)Nc2n[nH]c(Nc3ccccc3)n2)c(SCC(=O)O)cc1Cl
EC50: > 200 µM | IC50: > 200 µM

CC(C(N)=O)N(C)C(=O)c1cnc2ccccc2c1 (stereo not given)
outcome: inactive

CC(C)(C)OC(=O)NC(Cc1cc(C(C)(C)C)c(O)c(C(C)(C)C)c1)C(=O)O (stereo not given)
EC50: > 200 µM | IC50: 61.7 µM

NC(=O)C(Cc1ccccc1)NC(=O)c1ccccc1SC(=O)CCCC[n+]1ccccc1 (stereo not given)
EC50: > 200 µM | IC50: 4.47 µM

Cn1cnnc1SC(F)(F)c1nc2ccccc2o1
EC50: 191 µM | IC50: > 200 µM

C#Cc1cccc(N2C(=O)c3c(c(-c4ccccc4)c(-c4ccc(Cc5ccc(-c6c(-c7ccccc7)c7c(c(-c8ccccc8)c6-c6ccccc6)C(=O)N(c6cccc(C#C)c6)C7=O)cc5)cc4)c(-c4ccccc4)c3-c3ccccc3)C2=O)c1
EC50: > 23.4 µM | IC50: > 23.4 µM

COc1ccc(C2=C(N)c3c(Cl)cccc3C2=O)cc1
EC50: > 200 µM | IC50: 155 µM

O=C(OCC12CC3CC(CC(C3)C1)C2)c1ccc(NCc2cc(O)ccc2O)cc1
EC50: > 2 µM | IC50: 1.78 µM

O=C1c2c(O)cc(O)cc2OC(c2ccc(O)cc2O)C1O (stereo not given)
EC50: > 200 µM | IC50: 93.3 µM

O=C(O)c1cccc(P(=O)(O)O)c1
EC50: > 200 µM | IC50: > 200 µM

O=C(O)CCC(NC(=O)c1ccc(Nc2nc3ccc(C(F)(F)F)cc3nc2C(=O)O)cc1)C(=O)O (stereo not given)
EC50: > 200 µM | IC50: > 200 µM

c1ccc2[nH]c(CNc3ccc(C4C[Se]N=N4)cc3)nc2c1 (stereo not given)
EC50: > 20.4 µM | IC50: > 20.4 µM

COc1ccc(N2C(=O)/C(=C/c3ccc(N(CCC#N)CCC#N)cc3)N=C2c2ccccc2)c(OC)c1
EC50: > 200 µM | IC50: 50.1 µM

O=C(NC(=O)c1c(F)cccc1F)Nc1ccc(Br)cn1
EC50: > 200 µM | IC50: > 200 µM

CSc1ccc(OCC2OC2O)cc1 (stereo not given)
EC50: > 24.5 µM | IC50: > 24.5 µM

CS(=O)(=O)c1ccc(-c2cc(-c3ccc(S(C)(=O)=O)cc3)[n+](-c3cc(-c4ccccc4)c([O-])c(-c4ccccc4)c3)c(-c3ccc(S(C)(=O)=O)cc3)c2)cc1
EC50: > 692 µM | IC50: > 692 µM

CC(=O)N1c2ccccc2N(C(C)=O)C1c1ccc(C2N(C(C)=O)c3ccccc3N2C(C)=O)[nH]1
outcome: inactive

COc1ccccc1N1C(=O)CC(=O)N(C(=O)CCCCCCCCC(=O)N2C(=O)CC(=O)N(c3ccccc3OC)C2=S)C1=S
EC50: > 200 µM | IC50: 95.5 µM

CC1(O)Oc2ccc3ccccc3c2C=C1C(N)=O (stereo not given)
EC50: > 200 µM | IC50: 182 µM

NC(N)=NNC(O)(C(=O)O)C(=O)O
EC50: > 200 µM | IC50: > 200 µM

C[n+]1c2ccccc2n2c3ccccc3c(NCCCn3ccnc3)c(C#N)c21
EC50: > 20 µM | IC50: 1.1 µM

CCOC(=O)C(C(=O)OCC)=S1c2ccccc2Sc2ccccc21
EC50: > 200 µM | IC50: > 200 µM

N#Cc1ccc(N(O)C(=O)c2ccccc2)cc1
EC50: > 200 µM | IC50: 46.8 µM

N#Cc1c2c(c(Cl)n3c1nc1ccccc13)CCCC2
EC50: > 3.72 µM | IC50: > 3.72 µM

C=C(CCCCOCOCCOC)c1ccccc1
outcome: inactive

NNC(=O)CC(=O)N(C(=O)c1ccccc1)c1ccc(Cl)cc1
EC50: > 200 µM | IC50: > 200 µM

O=C(Nc1ccccc1)c1cc2cc(N=Nc3ccc(Br)cc3)ccc2oc1=O
outcome: inactive

CC[C@@]12N=C(N(C)C)C[C@]1(O)ON=C2C
EC50: > 200 µM | IC50: > 200 µM

CCNC(=O)NNc1ncnc2c1c(-c1ccc(Cl)cc1)cn2-c1ccc(C)cc1
EC50: > 200 µM | IC50: 35.5 µM

O=C1c2cccn2-c2ccccc2OC1c1ccc(NC(=S)Nc2ccc(Cl)cn2)cc1 (stereo not given)
EC50: > 200 µM | IC50: 15.8 µM

Nc1ccc2c(c1)C1Oc3ccccc3CC1CO2 (stereo not given)
EC50: > 200 µM | IC50: 110 µM

O=C(CC1=Nc2nnc(CCCCCCCc3nnc4n3C(=O)C(CC(=O)c3ccc5ccccc5c3)=N4)n2C1=O)c1ccc2ccccc2c1
EC50: > 4.07 µM | IC50: > 4.07 µM

CCOC(=O)C(=O)Nc1nc2c(s1)C(=O)c1ccccc1C2=O
outcome: inactive

CCCC(=O)CC(C)C(=O)C(=O)NC12CC3CC(CC(C3)C1)C2 (stereo not given)
EC50: > 295 µM | IC50: > 295 µM

CC1C2=C(CCCC2=O)N(c2ccc(Cl)cc2)C2=C1C(=O)CCC2
EC50: > 100 µM | IC50: > 100 µM

COc1c2cc(C(C)(C)C)cc1CSCc1cc(C(C)(C)C)cc(c1OC)CCCCC2
EC50: > 200 µM | IC50: > 200 µM

O=CC(O)C(O)C(O)C(O)C(=O)NCCCCCCCCCCCCNC(=O)C(O)C(O)C(O)C(O)C=O (stereo not given)
EC50: > 200 µM | IC50: > 200 µM

O=c1[nH]c(=O)c2c([nH]1)[nH]c1ccc(Br)cc12
EC50: > 200 µM | IC50: 34.7 µM

CC(=O)N(CC1CCCN(C)C1)C12CC3CC(CC(C3)C1)C2 (stereo not given)
EC50: > 117 µM | IC50: > 117 µM

O=C(Nc1c[nH]c(=O)[nH]c1=O)c1ccc(S(=O)(=O)F)cc1
EC50: > 151 µM | IC50: 85.1 µM

O=S(Nc1ccccc1)c1ccc(Cl)c(Cl)c1 (stereo not given)
EC50: > 200 µM | IC50: > 200 µM

COc1ccc(C(C2=C(C)C(=O)c3ccccc3C2=O)c2ccc(C(C)C)cc(=O)c2O)cc1 (stereo not given)
outcome: inactive

CN(c1nc(=[N+](C)C)ss1)C1CCCCC1
outcome: inactive

c1ccc(C2COC(c3ccc4c(c3)OCO4)O2)cc1 (stereo not given)
EC50: > 200 µM | IC50: 162 µM

Cc1cc2c(cc1C)C(=O)/C(=N/Nc1ccc(F)cc1)CCO2
EC50: > 200 µM | IC50: 178 µM

CC(=O)OC(C)(C)/C=C/C(=O)[C@](C)(O)[C@H]1[C@H](O)C[C@@]2(C)[C@@H]3CC=C4[C@@H](C[C@H](O)C(=O)C4(C)C)[C@]3(C)C(=O)C[C@]12C
EC50: > 0.2 µM | IC50: 0.00955 µM

O=c1c2ccccc2c(=O)c2c1cc(Cl)c1[nH]c3c([nH]c12)c(Cl)cc1c(=O)c2ccccc2c(=O)c13
EC50: > 7.41 µM | IC50: > 7.41 µM

N=c1c2ncn(C3OC(CO)CC3F)c2ncn1O (stereo not given)
outcome: inactive

CC(CN1CCCC1)C(O)(Cc1ccccc1)c1ccc(Cl)cc1 (stereo not given)
EC50: > 200 µM | IC50: 30.9 µM

c1ccc(OCC2CO2)c(OCC2CO2)c1 (stereo not given)
EC50: > 1120 µM | IC50: 3.98 µM

COc1cc(C=NC2CCCCC2)cc(OC)c1OC
EC50: > 182 µM | IC50: 95.5 µM

O=C(C(/C=N\C(=S)Nc1ccccc1Cl)=C(/O)c1ccccc1)c1ccccc1
EC50: > 200 µM | IC50: 12 µM

C/C(=C\c1csc(C)n1)[C@@H]1C[C@@H]2O[C@]2(C)CCC[C@H](C)[C@H](O)[C@@H](C)C(=O)C(C)(C)[C@@H](O)CC(=O)O1 (tested in a mixture with another compound)
EC50: > 0.02 µM | IC50: 0.001 µM

CC(=O)c1ccc([Se][Se]c2ccc(C(C)=O)cc2)cc1
EC50: > 18.2 µM | IC50: 3.72 µM

O=C/C(=C1/C=Cc2cc([N+](=O)[O-])ccc2S1)c1ccccc1
EC50: > 200 µM | IC50: > 200 µM
